In ChEMBL document CHEMBL6087420, “Synthesis and pharmacodynamic evaluation of 2-aminoindole derivatives against influenza A virus in vitro/vivo” (Eur J Med Chem, 2025):
Calls of active or inactive are those of the source. No cut-off for these calls is given here.

Tests used:
Influenza A virus [1] = assay: Antiviral activity against influenza A virus H1NI (A/Weiss/43) infected in MDCK cells assessed as reduction in IAV-NP mRNA by qRT-PCR assay; assay type: functional, organism-based
Influenza A virus [2] = assay: Antiviral activity against influenza A virus infected in A549 cells assessed as decrease in IAV-NP expression at 25 to 100 uM cells pretreated for 48 hrs followed by infected with virus by green fluorescent labelling based confocal microscopy; assay type: functional, organism-based; settings: dose 25-100 µM
Influenza A virus [3] = assay: Inhibition of influenza A virus infection induced apoptosis in MDCK cells infected with influenza virus assessed as necrotic cells at 50 uM incubated for 36 hrs by AnnexinV-FITC/PI staining based flow cytometry (reference value: 1.79%); assay type: functional; set-up: scale not given: the % may be the effect or the level left
Influenza A virus [4] = assay: In vivo antiviral activity against influenza A virus infected in BALB/c mouse assessed as reduction in OAS1 mRNA level in lung at 25 to 100 mg/kg measured after 6 dpi; assay type: functional, organism-based; settings: dose 25-100 mg/kg
Influenza A virus [5] = assay: In vivo antiviral activity against influenza A virus infected in BALB/c mouse assessed as reduction in ASC mRNA level in lung at 25 to 100 mg/kg measured after 6 dpi; assay type: functional, organism-based; settings: dose 25-100 mg/kg
[6] = Cytotoxicity against dog MDCK cells after 72 hrs incubation by MTT assay; assay type: toxicity, cell-based, Canis lupus familiaris
Influenza A virus [7] = assay: Inhibition of influenza A virus infection induced apoptosis in MDCK cells infected with influenza virus assessed as late apoptotic cells at 25 uM incubated for 36 hrs by AnnexinV-FITC/PI staining based flow cytometry (reference value: 13.2%); assay type: functional; set-up: scale not given: the % may be the effect or the level left
Influenza A virus [8] = assay: Inhibition of influenza A virus infection induced apoptosis in MDCK cells infected with influenza virus assessed as late apoptotic cells at 100 uM incubated for 36 hrs by AnnexinV-FITC/PI staining based flow cytometry (reference value: 13.2%); assay type: functional; set-up: scale not given: the % may be the effect or the level left
Influenza A virus [9] = assay: Antiviral activity against influenza A virus infected in A549 cells assessed as decrease in IAV-NP mRNA level measured after 1 to 3 days of viral infection; assay type: functional, organism-based; settings: time 1-3 day
[10] = Toxicity in healthy BALB/c mouse assessed as pathological change in lungs at 25 to 100 mg/kg administered through gavage for 6 days; assay type: organism-based; settings: in vivo, po, 144 h, dose 25-100 mg/kg, time 6 day
[11] = Cytotoxicity against human A549 cells assessed as toxicity after 72 hrs of incubation by MTT assay; assay type: cell-based
Influenza A virus [12] = assay: Antiviral activity against influenza A virus infected in human A549 cells assessed as inhibition of NF-kappaB protein expression at 25 to 100 uM by Western blot analysis; assay type: functional, organism-based; settings: dose 25-100 µM
Influenza A virus [13] = assay: In vivo antiviral activity against influenza A virus infected in BALB/c mouse assessed as reduction in IRF3 mRNA level in lung at 25 to 100 mg/kg measured after 6 dpi; assay type: functional, organism-based; settings: dose 25-100 mg/kg
Influenza A virus [14] = assay: Antiviral activity against influenza A virus infected in human A549 cells assessed as inhibition of IRF7 expression by qRT-PCR analysis; assay type: functional, organism-based
Influenza A virus [15] = assay: Inhibition of influenza A virus infection induced apoptosis in MDCK cells infected with influenza virus assessed as decrease in cleaved caspase 3 at 25 to 100 uM incubated for 36 hrs by Western blot analysis; assay type: functional, organism-based; settings: dose 25-100 µM
Influenza A virus [16] = assay: Antiviral activity against influenza A virus infected in human A549 cells assessed as inhibition of IL-6 expression by qRT-PCR analysis; assay type: functional, organism-based
Influenza A virus [17] = assay: Anti-influenza activity against influenza A virus H3N2 (A/California/2014) infected in dog MDCK cells incubated for 72 hrs by MTT assay; assay type: functional, organism-based
Influenza A virus [18] = assay: Inhibition of influenza A virus infection induced apoptosis in MDCK cells infected with influenza virus assessed as necrotic cells at 25 uM incubated for 36 hrs by AnnexinV-FITC/PI staining based flow cytometry (reference value: 1.79%); assay type: functional; set-up: scale not given: the % may be the effect or the level left
Influenza A virus [19] = assay: Antiviral activity against influenza A virus H1NI (A/Weiss/43) infected in human A549 cells assessed as reduction in viral titers in supernatants at 0.25 to 100 uM; assay type: functional, organism-based; settings: dose 0.25-100 µM
Influenza A virus [20] = assay: Antiviral activity against influenza A virus infected in A549 cells assessed as decrease in IAV-M2 expression pretreated for 48 hrs followed by infected with virus by Western blotting analysis; assay type: functional, organism-based; settings: dose 25-100 µM
Influenza A virus [21] = assay: Inhibition of Hemagglutinin in Influenza A virus
Influenza A virus [22] = assay: Inhibition of neuraminidase in Influenza A virus
Influenza A virus [23] = assay: In vivo antiviral activity against influenza A virus infected in BALB/c mouse assessed as reduction in apoptotic cells at 25 to 100 mg/kg measured after 6 dpi by TUNEL assay; assay type: functional, organism-based; settings: dose 25-100 mg/kg
Influenza A virus [24] = assay: Antiviral activity against influenza A virus infected in human A549 cells assessed as inhibition of IFN-gamma expression by qRT-PCR analysis; assay type: functional, organism-based
Influenza A virus [25] = assay: In vivo antiviral activity against influenza A virus infected in BALB/c mouse assessed as reduction in lung lesions at 25 to 100 mg/kg; assay type: functional, organism-based; settings: dose 25-100 mg/kg
Influenza A virus [26] = assay: Inhibition of influenza A virus infection induced apoptosis in MDCK cells infected with influenza virus assessed as viable cells at 50 uM incubated for 36 hrs by AnnexinV-FITC/PI staining based flow cytometry (reference value: 66.9%); assay type: functional
Influenza A virus [27] = assay: Inhibition of influenza A virus infection induced apoptosis in MDCK cells assessed as late apoptotic cells at 100 uM incubated for 36 hrs by AnnexinV-FITC/PI staining based flow cytometry (reference value: 0.70%); assay type: functional; set-up: scale not given: the % may be the effect or the level left
Influenza A virus [28] = assay: Inhibition of influenza A virus infection induced apoptosis in MDCK cells infected with influenza virus assessed as decrease in Bax incubated for 36 hrs by Western blot analysis; assay type: functional, organism-based
Influenza A virus [29] = assay: Inhibition of influenza A virus infection induced apoptosis in MDCK cells assessed as early apoptotic cells at 100 uM incubated for 36 hrs by AnnexinV-FITC/PI staining based flow cytometry (reference value: 0.96%); assay type: functional; set-up: scale not given: the % may be the effect or the level left
Influenza A virus [30] = assay: Antiviral activity against influenza A virus infected in human A549 cells assessed as inhibition of RIG-1 expression by qRT-PCR analysis; assay type: functional, organism-based
Influenza A virus [31] = assay: In vivo antiviral activity against influenza A virus infected in BALB/c mouse assessed as reduction in TLR-3 mRNA level in lung at 25 to 100 mg/kg measured after 6 dpi; assay type: functional, organism-based; settings: dose 25-100 mg/kg
[32] = Toxicity in healthy BALB/c mouse assessed as pathological change in liver at 25 to 100 mg/kg administered through gavage for 6 days; assay type: organism-based; settings: in vivo, po, 144 h, dose 25-100 mg/kg, time 6 day
Influenza A virus [33] = assay: Anti-influenza activity against influenza A virus H1NI (A/Weiss/43) infected in dog MDCK cells assessed as virus inhibition rate incubated for 72 hrs by MTT assay; assay type: functional, organism-based
Influenza A virus [34] = assay: Inhibition of influenza A virus infection induced apoptosis in MDCK cells infected with influenza virus assessed as early apoptotic cells at 100 uM incubated for 36 hrs by AnnexinV-FITC/PI staining based flow cytometry (reference value: 18.2%); assay type: functional; set-up: scale not given: the % may be the effect or the level left
[35] = Toxicity in healthy BALB/c mouse assessed as pathological change in colon at 25 to 100 mg/kg administered through gavage for 6 days; assay type: organism-based; settings: in vivo, po, 144 h, dose 25-100 mg/kg, time 6 day
Influenza A virus [36] = assay: Inhibition of influenza A virus infection induced apoptosis in MDCK cells infected with influenza virus assessed as viable cells at 100 uM incubated for 36 hrs by AnnexinV-FITC/PI staining based flow cytometry (reference value: 66.9%); assay type: functional

COc1ccc2c(c1)c(-c1ccccc1)c(NS(C)(=O)=O)n2S(=O)(=O)c1ccc(C)cc1
Activity (Influenza A virus [1]): Active | Activity (Influenza A virus [2]): Active | Activity (Influenza A virus [3]): 1.25% | Activity (Influenza A virus [4]): Active | Activity (Influenza A virus [5]): Active | CC50 at 72 h [6]: 669 µM | Activity (Influenza A virus [7]): 9.29% | Activity (Influenza A virus [8]): 1.62% | Activity (Influenza A virus [9]): Active | Activity [10]: Non-toxic | CC50 at 72 h [11]: 632 µM | Activity (Influenza A virus [12]): Active | Activity (Influenza A virus [13]): Active | Activity (Influenza A virus [14]): Active | Activity (Influenza A virus [15]): Active | Activity (Influenza A virus [16]): Active | EC50 (Influenza A virus [17]): 18.3 µM | Activity (Influenza A virus [18]): 1.23% | Activity (Influenza A virus [19]): Active | Activity (Influenza A virus [20]): Dose-dependent-effect | inhibition (Influenza A virus [21]): inactive | inhibition (Influenza A virus [22]): inactive | Activity (Influenza A virus [23]): Active | Activity (Influenza A virus [24]): Active | Activity (Influenza A virus [25]): Active; Compound Alleviate Red Liver-Like Degeneration Stage, With Edema And Expansion, And Dark Red Lesions And Lung Consolidation - Only Mild Edema Observed | Activity (Influenza A virus [26]): 85.5% | Activity (Influenza A virus [27]): 0.83% | Activity (Influenza A virus [28]): Active | Activity (Influenza A virus [29]): 0.89% | Activity (Influenza A virus [30]): Active | Activity (Influenza A virus [31]): Active | Activity [32]: Non-toxic | EC50 (Influenza A virus [33]): 8.37 µM | Activity (Influenza A virus [34]): 3.6% | Activity [35]: Non-toxic | Activity (Influenza A virus [36]): 92.8%
